Laboratory results as given in the NIST ThermoML archive (doi:10.1021/je060474z).

Test: cn = amount concentration of the nth substance listed, in mol/dm3
Conditions: 101.3 kPa, Liquid, Taylor dispersion method

OC[C@H]1O[C@@H]2O[C@H]3[C@H](O)[C@@H](O)[C@@H](O[C@H]4[C@H](O)[C@@H](O)[C@@H](O[C@H]5[C@H](O)[C@@H](O)[C@@H](O[C@H]6[C@H](O)[C@@H](O)[C@@H](O[C@H]7[C@H](O)[C@@H](O)[C@@H](O[C@H]1[C@H](O)[C@H]2O)O[C@@H]7CO)O[C@@H]6CO)O[C@@H]5CO)O[C@@H]4CO)O[C@@H]3CO [α-cyclodextrin] + O
binary diffusion coefficient [m2/s]
Conditions	c1 = 0.002	c1 = 0.004	c1 = 0.006	c1 = 0.008	c1 = 0.01
298.15 K	3.52e-10	3.5e-10	3.49e-10	3.47e-10	3.46e-10
303.15 K	4.07e-10	4.04e-10	4.03e-10	4.01e-10	3.98e-10
308.15 K	4.38e-10	4.36e-10	4.35e-10	4.34e-10	4.31e-10
312.15 K	5.02e-10	4.98e-10	4.88e-10	4.78e-10	4.72e-10
